Assay results published in patent US10150982B2, “Microbial ecology shift assay” (Second Genome, Inc., priority 2013, dated 2018).

Tests used:
[1] = test system: microbiota of human donor fecal samples; experiment: MESA microplate experiments (16S rRNA V4 sequencing, PCoA/Unifrac); format: cell-based; conditions: 24 hours anaerobic
Description: A fecal sample was obtained from each of three human donors, Donor 1, Donor 2, and Donor 3. 1 gram of each fecal sample was added to 10 mL phosphate buffered saline (PBS) to form three separate slurries of 10% (w/v) fecal sample. A total of 36 experiments was setup on a 48-well plate (referred to herein as “microplate experiments”). For each slurry obtained from Donor 1 Donor 2, or Donor 3, 40 μL of the respective slurry was added to each of twelve wells of the plate. For each of these 12 wells, 360 μL of water (control), water comprising fructose, or water comprising fructose oligosaccharide (FOS) were added. After addition of water, three of the twelve wells comprised slurry+water; three of the twelve wells comprised slurry+2% w/v fructose+water; three of the twelve wells comprised slurry+0.5% w/v FOS+water; and three of the twelve wells comprised slurry+2% w/v FOS+water. In Table 1, “Donor 1” represents slurry from Donor 1, “Donor 2” represents slurry from Donor 2, and “Donor 3” represents slurry from Donor 3. The microplate was then incubated for 24 hours in an anaerobic chamber under 80% nitrogen, 10% carbon dioxide, and 10% hydrogen (H2). A total of 8 experiments were prepared each in a vial (referred to herein as “tube experiments”). 200 μL of slurry from Donor 1 was added to each of the 8 vials. In 4 of the vials, 1.8 mL of water comprising FOS was added for a final concentration of 2% w/v FOS. For the other four vials, 1.8 mL of water (control) was added. Two of the vials comprising FOS and the two vials comprising water are incubated for 24 hours in an anaerobic chamber (comprising 80% nitrogen, 10% carbon dioxide, and 10% hydrogen (H2)) at 37° C. The other four vials are incubated for 16 hours. DNA was extracted from each sample (well or tube) and quantified using a PicoGreen method. DNA is also extracted from an aliquot of each slurry obtained from Donor 1, Donor 2, and Donor 3. DNA comprising the variable region (V4) region of the 16S rRNA gene was amplified and sequenced using the MiSeq platform from Ilumina. Principle component analyses (PCoA) were performed to identify Unifrac distances (degree of similarity/dissimilarity) of the different treatment groups. Relative taxa representation for the various treatment groups was determined at the phylum, class, order, family, genus and species levels using operational taxonomic units (OTUs) by comparing results to the GreenGenes database.

[2] = test system: microbiota of human donor fecal samples; experiment: MESA tube experiments (16S rRNA V4 sequencing, PCoA/Unifrac); format: cell-based; conditions: 2% FOS
Description: A fecal sample was obtained from each of three human donors, Donor 1, Donor 2, and Donor 3. 1 gram of each fecal sample was added to 10 mL phosphate buffered saline (PBS) to form three separate slurries of 10% (w/v) fecal sample. A total of 36 experiments was setup on a 48-well plate (referred to herein as “microplate experiments”). For each slurry obtained from Donor 1 Donor 2, or Donor 3, 40 μL of the respective slurry was added to each of twelve wells of the plate. For each of these 12 wells, 360 μL of water (control), water comprising fructose, or water comprising fructose oligosaccharide (FOS) were added. After addition of water, three of the twelve wells comprised slurry+water; three of the twelve wells comprised slurry+2% w/v fructose+water; three of the twelve wells comprised slurry+0.5% w/v FOS+water; and three of the twelve wells comprised slurry+2% w/v FOS+water. In Table 1, “Donor 1” represents slurry from Donor 1, “Donor 2” represents slurry from Donor 2, and “Donor 3” represents slurry from Donor 3. […] DNA was extracted from each sample (well or tube) and quantified using a PicoGreen method. […] Relative taxa representation for the various treatment groups was determined at the phylum, class, order, family, genus and species levels using operational taxonomic units (OTUs) by comparing results to the GreenGenes database.

[3] = Donor 1, 2% w/v agent, n=3, FIG. 2
[4] = Donor 2, 2% w/v agent, n=3, FIG. 3
[5] = Donor 3, 2% w/v agent, n=3, FIG. 4

Compound	shift in microbiota profile (PCoA, Unifrac distances) [1, 3]	shift in microbiota profile (PCoA, Unifrac distances) [1, 4]	shift in microbiota profile (PCoA, Unifrac distances) [1, 5]	shift in microbiota profile (PCoA, Unifrac distances) ([1]; Donor 1, 0.5% w/v agent, n=3, FIG. 2)	shift in microbiota profile (PCoA, Unifrac distances) ([1]; Donor 2, 0.5% w/v agent, n=3, FIG. 3)	shift in microbiota profile (PCoA, Unifrac distances) ([1]; Donor 3, 0.5% w/v agent, n=3, FIG. 4)	shifts in microbial communities between the two assay formats ([2]; 24 hour incubation, tube (n=2) vs microplate (n=3), FIG. 6)	shifts in microbial communities between the two incubation times ([2]; Donor 1, 16 hour vs 24 hour incubation, tube, n=2, FIG. 5)
O=C(CO)[C@@H](O)[C@H](O)[C@H](O)CO [fructose]	shift microbiota differently from controls	shift microbiota differently from controls	shift microbiota differently from controls	–	–	–	–	–
fructose oligosaccharide [FOS]	shift microbiota differently from controls	shift microbiota differently from controls	shift microbiota differently from controls	shift microbiota differently from controls	shift microbiota differently from controls	shift microbiota differently from controls	similar	similar
